Assay results taken from paper PMC12663137 (Nature Communications, 2025).
Where “and” joins values, the source holds several entries; their conditions need not be identical. Equal entries are not always repeated.

What was measured:
SV2AEM = biological target: T1, SV2AEM (Homo sapiens, UniProt Q7L0J3); experiment: Competitive displacement of 10 nM 3H-UCB-J, SV2AEM membranes (Fig. 1A); type: binding; details: for Binding of 3H-UCB-J (%): SV2A_EM; for binding response of SV2AEM vs wild-type SV2A: competition with 3H-UCB-J
T1 construct: expressed in transfected cells; host or cells: HEK293 (ATCC CRL-1573), crude membranes (transient transfection or baculovirus)
T1 sequence (Q7L0J3 141-742): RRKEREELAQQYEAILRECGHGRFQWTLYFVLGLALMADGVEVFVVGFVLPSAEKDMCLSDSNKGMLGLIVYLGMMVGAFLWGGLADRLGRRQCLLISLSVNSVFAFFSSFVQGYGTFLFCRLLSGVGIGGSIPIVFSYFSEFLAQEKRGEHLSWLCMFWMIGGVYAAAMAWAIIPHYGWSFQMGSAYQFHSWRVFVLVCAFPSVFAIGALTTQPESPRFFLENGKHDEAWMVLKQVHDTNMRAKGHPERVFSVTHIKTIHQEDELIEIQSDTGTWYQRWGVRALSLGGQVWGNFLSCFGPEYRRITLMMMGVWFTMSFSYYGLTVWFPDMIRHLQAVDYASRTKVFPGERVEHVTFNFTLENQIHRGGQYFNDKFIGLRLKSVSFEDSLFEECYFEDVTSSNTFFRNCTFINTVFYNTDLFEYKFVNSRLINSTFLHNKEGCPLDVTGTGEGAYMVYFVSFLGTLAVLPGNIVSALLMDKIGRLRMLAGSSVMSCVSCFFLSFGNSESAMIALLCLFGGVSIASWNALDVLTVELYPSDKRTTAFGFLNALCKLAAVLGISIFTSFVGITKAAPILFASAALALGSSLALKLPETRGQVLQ
Procedure: (§1) Ligand binding studies were carried out using crude membranes prepared from HEK293 cells (ATCC, CRL-1573) overexpressing mVenus-SV2AWT or SV2AEM. Membranes were prepared either from transiently transfected cells or from baculovirus-infected cells as described previously. Cells were washed with DPBS (Ca^2+ and Mg^2+ free), followed by resuspending in cold SH buffer (10 mM HEPES-Tris pH 7.4, 320 mM sucrose) containing protease inhibitor cocktail (MedChemExpress) to a density of 10^7 cells/ml. This cell suspension was homogenized by passing through a bead homogenizer (Isobiotec) with 10-micron clearance bead on ice. The lysate was then centrifuged at 4000 × g for 5 min at 4 °C, and the supernatant was aliquoted, frozen in liquid nitrogen, and stored at −80 °C. The mVenus fluorescence estimated using fluorescence size-exclusion chromatography (FSEC) was used to normalize expression levels of mVenus-SV2A mutants studied as detailed previously. For all binding studies, membranes containing […] protein (estimated by BCA method) per reaction were used.
(§2) To obtain dose-response curves of studied SV2A ligands, membranes diluted in 0.2 ml binding buffer (50 mM Tris-Cl, pH 7.4, and 2 mM MgCl2) were incubated with indicated concentrations of ligands for 30 min at 4 °C. […] The binding reaction was arrested by trapping membranes on Unifilter-GF/C 96-well filter plates (Revvity) pre-soaked with 0.1%(w/v) polyethyleneimine (PEI). Membranes were then washed four times with 0.2 ml of cold binding buffer, dried, and 40 µl of scintillation liquid was added to each well. Radioactivity was monitored in MicroBeta2 plate counter (Revvity). Estimates for IC50 were obtained from fitting the data to three-parameter dose-response curves using GraphPad Prism 10.

SV2AWT = biological target: T2, SV2AWT (Homo sapiens, UniProt Q7L0J3); experiment: Competitive displacement of 10 nM 3H-UCB-J, SV2AWT membranes (Fig. 1A); type: binding; details: SV2A_WT
T2 construct: expressed in transfected cells; host or cells: HEK293 (ATCC CRL-1573), crude membranes
T2 sequence (Q7L0J3 whole entry): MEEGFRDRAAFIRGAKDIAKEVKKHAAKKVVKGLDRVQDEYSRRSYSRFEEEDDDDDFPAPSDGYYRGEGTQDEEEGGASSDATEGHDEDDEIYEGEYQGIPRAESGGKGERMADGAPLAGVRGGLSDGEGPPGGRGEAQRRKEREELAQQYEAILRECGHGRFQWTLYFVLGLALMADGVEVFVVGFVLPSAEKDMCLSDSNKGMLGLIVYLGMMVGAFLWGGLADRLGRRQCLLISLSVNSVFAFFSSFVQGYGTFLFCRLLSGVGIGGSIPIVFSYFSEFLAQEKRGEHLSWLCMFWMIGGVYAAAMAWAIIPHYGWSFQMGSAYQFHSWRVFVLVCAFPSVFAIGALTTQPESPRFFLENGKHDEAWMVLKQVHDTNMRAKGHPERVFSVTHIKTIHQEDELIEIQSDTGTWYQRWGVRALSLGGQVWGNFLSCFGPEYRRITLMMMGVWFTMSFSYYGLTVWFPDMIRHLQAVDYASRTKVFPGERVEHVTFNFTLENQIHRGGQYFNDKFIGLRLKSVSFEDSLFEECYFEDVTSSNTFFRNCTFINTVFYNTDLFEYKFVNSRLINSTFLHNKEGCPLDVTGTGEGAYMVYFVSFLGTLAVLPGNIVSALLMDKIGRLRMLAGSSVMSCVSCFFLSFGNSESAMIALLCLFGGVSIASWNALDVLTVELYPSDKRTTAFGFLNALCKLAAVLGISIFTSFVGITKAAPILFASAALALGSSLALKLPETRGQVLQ
Procedure: as §1, §2

SV2A [1] = system: SV2A; design: method as in PMID: 31619465; details: PSL vs BRV; ref PMID: 31619465; cited from earlier work
SV2A [2] = experiment: Affinity of PSL for the orthosteric site compared with LEV and BRV (author response); type: binding; details: PSL vs LEV
Excerpt: - Does PSL modulate the binding of LEV or BRV to SV2A? Based on the ﬁndings of the present study, such experiments need to be included.
We appreciate this comment. It is not feasible to evaluate the modulatory eƯect of PSL on the binding of LEV or BRV, because PSL also binds to the orthosteric site, with much higher aƯinity than LEV (>1000-fold) or BRV (~100-fold), and directly competes with and readily displaces them (see Fig. below, for LEV , and PMID:
31619465 for BRV). This competitive eƯect of PSL on LEV and BRV has also been described in the literature (PMID: 31619465). We have discussed this limitation in the revised manuscript.
- SV2s belong to the SLC22 family. Is the allosteric binding site conserved in some of these proteins like for […]
Among the four key residues in the allosteric site (F188, Y461, S601, and L655), F188 and Y461 are conserved in OCT1 and OCT2; S601 is not conserved, and L655 is replaced by an alanine in OCT1 and OCT2 (Fig. below).
- Because no information is provided, I guess that the allosteric binding site of SV2A is not conserved in all MFS transporters. Therefore, the title is misleading and should be changed.
As described above, some of the key residues at this site are conserved in OCTs. However, it is unlikely that any single site, orthosteric or allosteric, is conserved across the entire MFS transporter family, and we fully […]

SV2A WT and L655Q [3] = experiment: 3H-padsevonil saturation binding, WT and L655Q (Supplementary Fig. 7D); design: species or system human; details: L655Q vs WT
Procedure: as §1
An equal volume of dimethyl sulfoxide (DMSO) was added to control reactions. Reactions were arrested after 2 h by trapping the membranes on a Unifilter-GF/C 96-well filter plate pre-soaked with 0.1%(w/v) polyethyleneimine. […] Radioactivity was monitored in MicroBeta2 plate counter. […]

SV2A WT and L655Q [4] = system: SV2A WT and L655Q; design: method as in PMID: 31619465; details: previous literature; ref PMID: 31619465; cited from earlier work

## Cc1cnccc1CN1C[C@@H](c2cc(F)c(F)c(F)c2)CC1=O [UCB-J]
SV2AEM; Log [1H-UCB-J] (M) -6.523
  Binding of 3H-UCB-J (%): 2.78% and -1.47% and -5.78% and -0.31% and 4.06% and 1.75%
SV2AEM; Log [1H-UCB-J] (M) -7.523
  Binding of 3H-UCB-J (%): 15.59% and 10.62% and 12.56% and 12.68% and 13.47% and 20.94%
SV2AEM; Log [1H-UCB-J] (M) -8.000
  Binding of 3H-UCB-J (%): 31.93% and 22.52% and 28.83% and 28.77% and 31.87% and 32.29%
SV2AEM; Log [1H-UCB-J] (M) -8.523
  Binding of 3H-UCB-J (%): 75.64% and 50.69% and 48.99% and 56.15% and 58.52% and 59.86%
SV2AEM; Log [1H-UCB-J] (M) -9.000
  Binding of 3H-UCB-J (%): 73.21% and 53.48% and 72.67% and 79.47% and 76.43% and 84.63%
SV2AEM; Log [1H-UCB-J] (M) -10.000
  Binding of 3H-UCB-J (%): 81.17% and 90.15%
SV2AEM; Log [1H-UCB-J] (M) -11.000
  Binding of 3H-UCB-J (%): 103.75% and 70.18% and 88.51% and 77.34% and 86.03% and 113.17%
SV2AEM; Log [1H-UCB-J] (M) -12.000
  Binding of 3H-UCB-J (%): 116.50% and 86.88% and 109.04% and 74.97% and 104.60% and 108.00%
SV2AEM; UCB-J vs levetiracetam
  IC50 fold lower than that of levetiracetam: 1000 fold
SV2AEM
  binding response of SV2AEM vs wild-type SV2A: comparable to those of wild-type SV2A
SV2AEM; radioligand displacement, 10 nM 3H-UCB-J, padsevonil sentence prints SV2A (Fig. 1)
  IC50: 4.1 ± 0.4 nM
SV2AWT; Log [1H-UCB-J] (M) -5.000
  Binding of 3H-UCB-J (%): 0.68% and -0.10%
SV2AWT; Log [1H-UCB-J] (M) -6.000
  Binding of 3H-UCB-J (%): 0.71% and -0.36% and 1.84% and 0.28% and 0.81% and 0.45%
SV2AWT; Log [1H-UCB-J] (M) -6.523
  Binding of 3H-UCB-J (%): 1.22% and 0.52% and -0.33% and 0.54% and 1.39% and 0.90%
SV2AWT; Log [1H-UCB-J] (M) -7.523
  Binding of 3H-UCB-J (%): 12.02% and 10.25% and 9.91% and 8.99% and 8.62% and 8.05%
SV2AWT; Log [1H-UCB-J] (M) -8.000
  Binding of 3H-UCB-J (%): 31.03% and 29.35% and 27.21% and 30.71% and 28.47% and 28.55%
SV2AWT; Log [1H-UCB-J] (M) -8.523
  Binding of 3H-UCB-J (%): 65.52% and 65.94% and 58.12% and 42.68% and 40.88% and 45.33%
SV2AWT; Log [1H-UCB-J] (M) -9.000
  Binding of 3H-UCB-J (%): 87.65% and 87.60% and 75.33% and 94.15% and 69.01% and 65.28%
SV2AWT; Log [1H-UCB-J] (M) -9.523
  Binding of 3H-UCB-J (%): 75.61% and 87.06% and 81.72% and 100.70% and 107.65% and 91.65%
SV2AWT; Log [1H-UCB-J] (M) -10.000
  Binding of 3H-UCB-J (%): 99.86% and 95.05% and 102.73% and 88.69% and 93.37% and 102.84%
SV2AWT; Log [1H-UCB-J] (M) -11.000
  Binding of 3H-UCB-J (%): 103.52% and 102.05% and 94.43% and 83.50% and 83.58% and 84.45%

## COCc1nn2c(CN3C[C@@H](CC(F)(F)Cl)CC3=O)c(C(F)(F)F)nc2s1 [padsevonil]
SV2A [1]
  orthosteric site affinity higher than BRV: ~ 100 fold
SV2AEM; Log [Padsevonil] (M) -5.000
  Binding of 3H-UCB-J (%): 3.25% and 0.52% and -0.52% and -1.49% and 2.74% and 1.94%
SV2AEM; Log [Padsevonil] (M) -6.000
  Binding of 3H-UCB-J (%): 0.40% and 1.18% and 0.39% and -2.99% and 2.99% and -0.40%
SV2AEM; Log [Padsevonil] (M) -6.523
  Binding of 3H-UCB-J (%): 3.53% and 6.77% and 1.25% and 5.54% and 6.72% and 2.16%
SV2AEM; Log [Padsevonil] (M) -8.000
  Binding of 3H-UCB-J (%): 61.56% and 69.84% and 60.36% and 64.16% and 85.63% and 52.51%
SV2AEM; Log [Padsevonil] (M) -8.523
  Binding of 3H-UCB-J (%): 98.63% and 86.36% and 64.73% and 84.51% and 93.84% and 76.42%
SV2AEM; Log [Padsevonil] (M) -9.000
  Binding of 3H-UCB-J (%): 99.89% and 102.95% and 84.66% and 80.15% and 101.99% and 100.11%
SV2AEM; Log [Padsevonil] (M) -10.000
  Binding of 3H-UCB-J (%): 102.45% and 91.95% and 108.05% and 96.45% and 103.55% and 82.92%
SV2AEM
  binding response of SV2AEM vs wild-type SV2A: comparable to those of wild-type SV2A
SV2AWT; Log [Padsevonil] (M) -5.523
  Binding of 3H-UCB-J (%): 0.15% and -0.08% and -0.07% and 0.0758% and -0.0562%
SV2AWT; Log [Padsevonil] (M) -6.000
  Binding of 3H-UCB-J (%): 0.06% and 0.26% and 0.47% and 0.68% and 0.17% and 0.52%
SV2AWT; Log [Padsevonil] (M) -6.523
  Binding of 3H-UCB-J (%): -0.0333% and 0.63% and 1.13% and 0.79% and 1.06%
SV2AWT; Log [Padsevonil] (M) -7.000
  Binding of 3H-UCB-J (%): 0.99% and 1.18% and 1.52% and 1.41% and 1.96% and 1.26%
SV2AWT; Log [Padsevonil] (M) -7.523
  Binding of 3H-UCB-J (%): 11.48% and 11.90% and 12.69% and 11.26% and 10.29% and 8.18%
SV2AWT; Log [Padsevonil] (M) -8.000
  Binding of 3H-UCB-J (%): 53.01% and 65.10% and 62.58% and 68.15% and 66.28% and 57.17%
SV2AWT; Log [Padsevonil] (M) -8.523
  Binding of 3H-UCB-J (%): 80.92% and 83.61% and 90.83% and 87.28% and 90.55% and 93.06%
SV2AWT; Log [Padsevonil] (M) -9.000
  Binding of 3H-UCB-J (%): 70.83% and 92.57% and 94.89% and 80.96% and 85.33% and 98.78%
SV2AWT; Log [Padsevonil] (M) -9.523
  Binding of 3H-UCB-J (%): 81.14% and 79.95% and 92.20% and 92.92% and 81.04% and 90.08%
SV2AWT; Log [Padsevonil] (M) -10.000
  Binding of 3H-UCB-J (%): 105.07% and 88.23% and 106.70% and 105.83% and 107.31% and 86.86%
SV2A [2]
  orthosteric site affinity higher than LEV: > 1000 fold
SV2A WT and L655Q [3]
  padsevonil binding in L655Q mutant compared to wild-type: not able to detect a substantial difference
SV2A WT and L655Q [4]
  Hill coefficient: ~1
